Patent US8138191B2, “Inhibitor compounds and cancer treatment methods” (Critical Outcome Technologies Inc., priority 2007, dated 2012)
Where two headings read alike, the source gives them in different places.

What was measured:
CYP2C8 = target: T1, CYP2C8 (Homo sapiens, UniProt P10632); assay: in vitro; settings: both
T1 sequence (P10632 1-490): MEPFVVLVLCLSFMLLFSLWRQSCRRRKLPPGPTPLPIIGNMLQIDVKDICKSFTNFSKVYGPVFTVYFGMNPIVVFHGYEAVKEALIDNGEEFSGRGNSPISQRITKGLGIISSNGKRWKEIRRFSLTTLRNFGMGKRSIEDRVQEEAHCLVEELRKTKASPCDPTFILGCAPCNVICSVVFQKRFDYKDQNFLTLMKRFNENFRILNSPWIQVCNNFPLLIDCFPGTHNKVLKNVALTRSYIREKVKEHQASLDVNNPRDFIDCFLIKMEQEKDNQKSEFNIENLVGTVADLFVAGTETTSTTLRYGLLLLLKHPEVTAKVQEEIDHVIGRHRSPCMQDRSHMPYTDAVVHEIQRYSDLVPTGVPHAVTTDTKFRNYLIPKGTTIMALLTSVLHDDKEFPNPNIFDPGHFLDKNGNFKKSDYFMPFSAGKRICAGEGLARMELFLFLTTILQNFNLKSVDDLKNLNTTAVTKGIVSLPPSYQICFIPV

[1] = B-A Permeability (TC7, pH 7.4/7.4) + verapamil; format: in vitro ADME; settings: human, Caco-2, pH 7.4, with verapamil (concentration not stated), 1.0E−05 M
[2] = system: AN3-CA human endometrial tumor xenograft; settings: for Maximum weight loss (%) (Day #): Day 21; for CS (Complete Shrinkage) / Deaths: N 10; for Mean days of Survival (Day ± SEM): end point of 2000 mg
Method: Female athymic nude mice (CrTac:NCR-Foxn1^nu) were supplied by Taconic (Germantown, N.Y.).
The dosing schedule for COTI-2 and the vehicle control was three times weekly until study end. […] When the mean tumor weight of each mouse reached an approximate end-point of 2000 mg, mice were sacrificed with regulated CO2.
The mean tumor shrinkage of each group was calculated and reported.

HeLa cells = assay: Sensitivity to COTI-2 after PTEN siRNA knockdown (alamar Blue), HeLa; format: cell-based, human; settings: 48 h post-transfection
Method: Briefly, HeLa and MCF-7 cells were transfected with 100 nM PTEN siRNA or control non-targeted siRNA at 48 or 144 h prior to exposure to various concentrations of COTI-2.
To assess the capacity of transient siRNA transfection to alter the ability of cells to proliferate in the presence or absence of COTI-2, HeLa or MCF-7 cells (both PTEN-positive) were plated in T25 flasks and transfected 24 h later with PTEN siRNA or non-targeting control siRNA (100 nM in both cases), using Oligofectamine Reagent (Invitrogen) according to the manufacturer's instructions and as previously described (J Pharmacol Exp Ther, 322:123-132). […] PTEN and 18S rRNA mRNA levels were determined by semi-quantitative reverse transcription PCR. […]
For determination of drug sensitivity, HeLa and MCF-7 cells (transfected with PTEN siRNA or control, non-targeted siRNA 48 or 144 hours prior) were re-plated in 96-well plates (VWR, Mississauga, ON, Canada) at 1700 (MCF-7) and 1200 (HeLa) cells per well in a volume of 100 μl of DMEM+10% FBS. […] Cells were then grown for 4 days, and viable cell numbers were assessed by the alamar Blue fluorescence assay using a Wallac Victor^2 multilabel counter (PerkinElmer Wallac, Gaithersburg, Md.). […]

in vivo = settings: both, rat, in vivo
Excerpt: Pharmacokinetic studies in animal models provide valuable information that enables prediction of metabolism in humans. There are a large variety of animal models that allow for the pharmacokinetic evaluation of compounds by providing information on serum, plasma, and tissue levels. […] As a result, it is important to keep this phenomenon in mind during extrapolations from animal to human metabolism. An initial pharmacokinetic assessment of COTI-2, administered both intravenously and orally, in its parent formulation and as both an oxalate and tartrate salt were evaluated in rats.
A single oral or IV dose of the COTI-2 free-base or the aforementioned salt forms was administered to groups of male and female rats and blood samples collected and processed at several time-points post-treatment.

[3] = system: Akt kinase activity in DMS-114 cells; assay: Akt kinase activity (immunoprecipitated Akt, GSK-3 phosphorylation), DMS-114; settings: DMS-114, 250 nM, 8 hrs
[4] = COTI-2 12.5 mg/kg IV 3X Weekly to end
[5] = COTI-2 50.0 mg/kg IV 3X Weekly to end

Compound: S=C(N/N=C1/CCCc2cccnc21)N1CCN(c2ccccn2)CC1 [COTI-2]
- inhibition at 15 min, 10 µM (CYP2C8; human liver microsomes, pH 7.4, probe paclitaxel (10 µM)): 10%
- inhibition at 15 min, 10 µM (CYP2C8; liver microsomes, pH 7.4, probe paclitaxel): < 50%
- recovery at 10 µM ([1]; 1st determination, read-out: Percent Recovery 1st): 49%
- recovery at 10 µM ([1]; 2nd determination, read-out: Percent Recovery 2nd): 46%
- recovery at 10 µM ([1]; mean, read-out: Percent Recovery Mean): 47%
- Day 13 Mean tumor weight [2, 4]: 1,828.9 ± 265.8 mg
- Maximum weight loss (%) (Day #) [2, 4]: 8.2% (Day 21)
- CS (Complete Shrinkage) [2, 4]: 0
- Deaths [2, 4]: 0
- Mean days of Survival (Day ± SEM) [2, 4]: 16.7 ± 0.8 days
- Day 13 Mean tumor weight [2, 5]: 1,542.7 ± 217.2 mg
- Day 13 TGI [2, 5]: 7.8%
- Maximum weight loss (%) (Day #) [2, 5]: 5.4% (Day 21)
- CS (Complete Shrinkage) [2, 5]: 0
- Deaths [2, 5]: 1
- Mean days of Survival (Day ± SEM) [2, 5]: 17.2 ± 0.7 days
- Mean days of Survival (Day ± SEM) ([2]; COTI-2 […] IV 3X Weekly to end): 15.8 ± 0.9 days
- toxicity observations ([2]; mouse, in vivo, 50 mg/kg): lethargy and hypoactivity
- tumor weights or survival compared to control ([2]; single agent, IV three times weekly): did not show any statistical differences in tumor weights or survival
- resistance to COTI-2 after PTEN siRNA transfection (HeLa cells): significant increase in the resistance
- bioavailability (in vivo): 17.7%
- Tmax (in vivo; po): 4 h
- clearance (CL) from plasma, fold higher than the oxalate and tartrate formulations (in vivo; po): approximately 2 fold
- rate of absorption (Ka), fold higher than the other formulations (in vivo; po): approximately 3 fold
- Akt kinase activity [3]: below the threshold for measurement
